This note sets out measurements from patent US12496269B2, “Steamed Glycyrrhiza sp. extract with increased glycyrrhetinic acid contents and preparation method thereof” (LG Household & Health Care Ltd., priority 2021, dated 2025).

In experiment [1] the test system is Raw264.7 cells. The experiment is described as follows: Anti-inflammatory effect by inhibition of NO production (lipopolysaccharide-stimulated). It is filed as cell-based. Particulars: positive control at 100 μM, lipopolysaccharide 500 ng/mL, 18 hours, vs control group. Here is the method:
In order to examine the anti-inflammatory effect of the Glycyrrhiza sp. extract, 10 g of the Glycyrrhiza sp., which was not treated, steamed at 120° C., or roasted at 200° C. and steamed at 120° C., was extracted with 200 mL of 50% butylene glycol and filtered to prepare each extract.
To culture Raw264.7 cells, a mixture of DMEM (Dulbecco's Modified Eagle's Medium) and FBS (Fetal Bovine Serum) was used as a basic medium, and Raw264.7 cells were dispensed in a 24-well plate at a density of 1×10^5 cells/mL to 2×10^5 cells/mL and cultured for 24 hours. After removing the medium and starving with a serum-free medium for 12 hours, each extract was treated at a concentration of 1% in the cell culture solution. 30 minutes later, lipopolysaccharide was added at a concentration of 500 ng/mL, followed by culturing for 18 hours. As a control group, 50% butylene glycol was used. L-NMMA, which is a positive control, was treated at 100 μM. After culturing, the supernatant was taken and transferred to a 96-well plate, and GRIESS reagent was added and reacted at room temperature for 15 minutes. Absorbance at 540 nm was measured using an ELISA reader. The total amount of NO, of which production was inhibited as compared to the control group, was determined as the NO production inhibition rate (%), and the experiment was conducted in triplicate, and then the average value was calculated (Table 6).

Experiment [2] concerns MNT-1 melanoma cells. The experiment is described as follows: Whitening effect by inhibition of melanin production. Particulars: Homo sapiens, positive control at 200 μg/mL (200 ppm), 72 hours, vs control group, read-out: Melanin production inhibition rate (%). Type of experiment: cell-based. The protocol: In order to examine the whitening effect of the Glycyrrhiza sp. extract, 10 g of the Glycyrrhiza sp., which was not treated, steamed at 120° C., or roasted at 200° C. and steamed at 120° C., was extracted with 200 mL of 50% butylene glycol and filtered to prepare each extract.
To culture MNT-1 melanoma cells, a mixture of DMEM (Dulbecco's Modified Eagle's Medium) and FBS (Fetal Bovine Serum) was used as a basic medium, and MNT-1 melanoma cells were dispensed in a 6-well plate at a density of 1×10^5 cells/mL to 2×10^5 cells/mL and cultured for 24 hours. Each extract was treated at a concentration of 0.1% in the cell culture solution, and then cultured for 72 hours. As a control group, 50% butylene glycol was used. Arbutin, which is a positive control, was treated at 200 μg/mL (200 ppm). […] Melanin in the precipitate was dissolved by adding 100 μL of 0.5 N sodium hydroxide solution and incubating for 12 hours, and absorbance at 450 nm was measured using an ELISA reader to measure the total amount of melanin produced. The total amount of melanin, of which production was inhibited as compared to the control group, was determined as the melanin production inhibition rate (%), and the experiment was conducted in triplicate, and then the average value was calculated (Table 5).

As for `CNC(=N)NCCC[C@H](N)C(=O)O` [L-NMMA], the “NO production inhibition rate (%)” value in experiment [1] is listed as 60.9%.
For orientation: inhibition means the share of the control response that was lost under treatment. With `OC[C@H]1O[C@@H](Oc2ccc(O)cc2)[C@H](O)[C@@H](O)[C@@H]1O` [Arbutin], the inhibition at 200 µg/mL in experiment [2] is 19.7%.
